Earlier results, collected in patent US20210161190A1, “CORE BODY TEMPERATURE REDUCING AGENT, FOOD PRODUCT, AND SLEEP IMPROVING AGENT” (JAPAN TOBACCO INC., priority 2018, published 2021).

Experiments:
[1] = system: mouse models of sleep disorder caused by imposed stress
[2] = intake of glycine
[3] = stress-imposed mouse models, continuous administration 350 to 3000 mg/kg of body weight per day

Compound	circadian variation in core body temperature ([1]; mice without imposed stress)	REM sleep [1, 3]	non-REM sleep [1, 3]	core body temperature after intake [2]	percentage of Non-REM sleep [2]
O=C[C@H](O)[C@H](O)[C@H](O)CO [D-ribose]	hardly affected	suppressed reduction in REM sleep	promoted increases in non-REM sleep	–	–
NCC(=O)O [glycine]	–	–	–	reduces core body temperature	improves the percentage of Non-REM sleep
